Tests used:
[1] = target: T1, human sphingosine-1-phosphate receptor 1 (S1P1) (Homo sapiens (Human), UniProt P21453); assay: β-Arrestin2 recruitment assay (PathHunter), S1P1 CHO-K1 cells; assay type: cell-based; details: for Emax: CHO-K1, efficacy (SPAN) normalized to fingolimod, read-out: hS1P1 B-arrestin2 SPAN
Method in brief: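 Enzyme-fragment complementation read-out: agonist-driven β-arrestin2 binding to ProLink-tagged human S1P1 in stable CHO-K1 cells restores β-galactosidase, measured 1 h at room temperature after a 60 min 37° C. compound incubation. Potency as pEC50, efficacy relative to fingolimod (SPAN).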
Target sequence in this assay (P21453 whole entry, looked up, the tested form may be a part): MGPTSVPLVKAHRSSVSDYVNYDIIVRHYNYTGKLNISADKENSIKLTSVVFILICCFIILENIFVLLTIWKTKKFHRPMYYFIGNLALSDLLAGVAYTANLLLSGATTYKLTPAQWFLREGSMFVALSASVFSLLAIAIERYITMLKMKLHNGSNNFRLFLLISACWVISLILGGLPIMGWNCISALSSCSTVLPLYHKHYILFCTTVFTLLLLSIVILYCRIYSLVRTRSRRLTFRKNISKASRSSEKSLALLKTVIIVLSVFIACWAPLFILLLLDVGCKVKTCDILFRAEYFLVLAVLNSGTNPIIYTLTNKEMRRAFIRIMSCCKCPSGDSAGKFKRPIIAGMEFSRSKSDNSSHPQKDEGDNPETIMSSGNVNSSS
Target sequence in this assay (P32121 whole entry partner, looked up, the tested form may be a part): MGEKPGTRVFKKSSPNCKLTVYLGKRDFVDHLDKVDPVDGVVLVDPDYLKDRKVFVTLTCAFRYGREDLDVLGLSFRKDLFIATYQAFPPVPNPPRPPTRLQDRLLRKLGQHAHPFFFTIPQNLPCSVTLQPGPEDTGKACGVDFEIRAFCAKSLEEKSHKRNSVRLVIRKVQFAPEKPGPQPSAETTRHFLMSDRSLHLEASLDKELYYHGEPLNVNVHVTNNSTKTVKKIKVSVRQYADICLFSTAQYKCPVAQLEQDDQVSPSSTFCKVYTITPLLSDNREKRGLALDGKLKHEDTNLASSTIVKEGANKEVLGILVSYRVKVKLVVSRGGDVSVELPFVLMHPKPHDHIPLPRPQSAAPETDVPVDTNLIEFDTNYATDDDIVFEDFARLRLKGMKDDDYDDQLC

[2] = target: T1, human sphingosine-1-phosphate receptor 1 (S1P1); assay: Inhibition of cAMP production (HTRF cAMP HiRange), S1P1 CHO-K1 cells; assay type: cell-based; details: for Emax: CHO-K1, efficacy (SPAN) normalized to fingolimod, read-out: hS1P1 cAMP SPAN
Method in brief: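 CHO-K1 cells stably co-expressing human S1P1 (C-terminal Prolink tag) and EA-β-arrestin2 were grown in AssayComplete Media 6 at 37° C. and 5% CO2, plated, and incubated overnight. Agonist-driven inhibition of intracellular cAMP was read by TR-FRET with the HTRF cAMP HiRange kit on a PheraStar reader. Potency is pEC50, and efficacy (SPAN) is normalized to fingolimod.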
Target sequence in this assay (P21453 whole entry, looked up, the tested form may be a part): as the sequence (P21453 whole entry, looked up, the tested form may be a part) above

[3] = test system: paclitaxel induced peripheral neuropathy; assay: Reversal of allodynia induced by paclitaxel in mice (s.c. or p.o., von Frey frequency method); assay type: in vivo, c57bl/6 mice; details: Mus musculus, po, 1 h, 3 mg/kg p.o., tested 60 min after dosing, read-out: Screen @ 3 mg/kg po (% MPE)
Procedure: Compounds were tested for efficacy in mouse models of chemotherapy induced peripheral neuropathy. […] For these studies […]/6 mice are habituated to the test environment and baseline measurements of pain sensitivity are assessed. To determine mechanical responses, the threshold for responses to punctate mechanical stimuli (mechanical hyperalgesia) was tested according to the frequency method. In brief, the plantar surface of the animal hindpaw was stimulated with a single von Frey monofilament (0.4 g) for approximately 1-2 seconds. If there was a withdrawal response, it was recorded as a positive response. A response was defined as a lifting or shaking of the paw upon stimulation. This was repeated ten times for each mouse. The final measurement for each mouse is the % non-response to stimulation for the ten trials. The % non-response to stimulation is converted to a % MPE. For paclitaxel induced peripheral neuropathy, a series of injections of PAC (6 mg/kg, i.p.) on days 1, 3, 5 and 7 is used to induce peripheral neuropathy. After approximately 14 days from the initiation of PAC injections, animals are re-assessed for mechanical sensitivity. […] On test day animals are dosed with compounds either subcutaneously or orally and tested for mechanical response by the frequency method either 30 min (s.c.) or 60 min (p.o.) after drug administration. Data is presented as a % MPE. For oxaliplatin induced peripheral neuropathy, a series of injections of OXA (4 mg/kg, i.p.) on days 1-5 is used to induce peripheral neuropathy. After approximately 14 days from the initiation of PAC injections, animals are re-assessed for mechanical sensitivity. […] On test day animals are dosed with compounds subcutaneously and tested for mechanical response by the frequency method 30 min after drug administration. Data is presented as a % MPE. One or more of the compounds show reversal of chemotherapeutic induced peripheral neuropathy.

[4] = β-arrestin2 recruitment, S1P1 CHO-K1 cells
[5] = inhibition of cAMP production, S1P1 CHO-K1 cells

SMILES	Emax [1]	hS1P1 B-arrestin2 pEC50 [1, 4]	Emax [2]	hS1P1 cAMP pEC50 [2, 5]	also measured
CCc1ccccc1-c1nc(-c2ccc3c(c2)nnn3C(C)(C)CO)no1 [Compound 624, 2-(5-(5-(2-ethylphenyl)-1,2,4-oxadiazol-3-yl)-1H-benzo[d][1,2,3]triazol-1-yl)-2-methylpropan-1-ol]	> 75%	<5	< 75%	<6.5	–
Cc1ccncc1-c1nc(-c2ccc3c(c2)nnn3C(C)(C)CO)no1 [Compound 625, 2-methyl-2-(5-(5-(4-methylpyridin-3-yl)-1,2,4-oxadiazol-3-yl)-1H-benzo[d][1,2,3]triazol-1-yl)propan-1-ol]	< 75%	<5	< 75%	<6.5	–
CC(C)(CO)n1nnc2cc(-c3noc(-c4ccncc4C(F)(F)F)n3)ccc21 [Compound 626, 2-methyl-2-(5-(5-(3-(trifluoromethyl)pyridin-4-yl)-1,2,4-oxadiazol-3-yl)-1H-benzo[d][1,2,3]triazol-1-yl)propan-1-ol]	–	<5	–	<6.5	–
COc1cccnc1-c1noc(-c2ccc3c(c2)nnn3C(C)C)n1 [Compound 627, 5-(1-isopropyl-1H-benzo[d][1,2,3]triazol-5-yl)-3-(3-methoxypyridin-2-yl)-1,2,4-oxadiazole]	> 75%	<5	> 75%	<6.5	–
CC(C)Nc1ccc(-c2ncc(-c3ccc4[nH]c(=O)[nH]c4c3)cn2)cc1C#N [Compound 628, 2-(isopropylamino)-5-(5-(2-oxo-2,3-dihydro-1H-benzo[d]imidazol-5-yl)pyrimidin-2-yl)benzonitrile]	–	>5	–	>6.5	–
O=C1CNc2ccc(-c3nc(-c4cccnc4)no3)cc2N1 [Compound 629, 7-[3-(pyridin-3-yl)-1,2,4-oxadiazol-5-yl]-1,2,3,4-tetrahydroquinoxalin-2-one]	–	<5	–	<6.5	–
CCCC1CC(=O)c2ccc(-c3nc(-c4cccnc4)no3)cc2O1 (stereo not shown) [Compound 630, 2-propyl-7-[3-(pyridin-3-yl)-1,2,4-oxadiazol-5-yl]-3,4-dihydro-2H-1-benzopyran-4-one]	–	<5	–	<6.5	–
CCCCC1CC(=O)c2ccc(-c3nc(-c4cccnc4)no3)cc2O1 (stereo not shown) [Compound 633, 2-butyl-7-[3-(pyridin-3-yl)-1,2,4-oxadiazol-5-yl]-3,4-dihydro-2H-1-benzopyran-4-one]	–	<5	–	<6.5	–
Cn1cnc2ccc(-c3nnc(-c4ccc(NC(C)(C)CO)c(C#N)c4)o3)cc21 [Compound 634, 2-[(1-hydroxy-2-methylpropan-2-yl)amino]-5-[5-(1-methyl-1H-1,3-benzodiazol-6-yl)-1,3,4-oxadiazol-2-yl]benzonitrile]	–	<5	–	<6.5	–
Cn1cnc2ccc(-c3nnc(-c4ccc(NCC(F)(F)CO)c(C#N)c4)o3)cc21 [Compound 635, 2-[(2,2-difluoro-3-hydroxypropyl)amino]-5-[5-(1-methyl-1H-1,3-benzodiazol-6-yl)-1,3,4-oxadiazol-2-yl]benzonitrile]	–	>5	–	>6.5	–
CC(C)Nc1ccc(-c2nnc(-c3ccc4c(c3)C(=O)NCC4)o2)cc1C#N [Compound 638, 5-[5-(1-oxo-1,2,3,4-tetrahydroisoquinolin-7-yl)-1,3,4-oxadiazol-2-yl]-2-[(propan-2-yl)amino]benzonitrile]	–	<5	–	>6.5	–
CCC1(CC)CC(=O)c2cc(-c3nc(-c4ccncn4)no3)ccc2O1 [Compound 639, 2,2-diethyl-6-(3-(pyrimidin-4-yl)-1,2,4-oxadiazol-5-yl)chroman-4-one]	–	<5	–	<6.5	–
CCC1(CC)CC(=O)c2cc(-c3nc(-c4ncccn4)no3)ccc2O1 [Compound 640, 2,2-diethyl-6-(3-(pyrimidin-2-yl)-1,2,4-oxadiazol-5-yl)chroman-4-one]	–	<5	–	<6.5	–
Cc1nccnc1-c1nc(-c2ccc3c(c2)nnn3C(C)(C)CO)no1 [Compound 641, 2-methyl-2-(5-(5-(3-methylpyrazin-2-yl)-1,2,4-oxadiazol-3-yl)-1H-benzo[d][1,2,3]triazol-1-yl)propan-1-ol]	< 75%	<5	< 75%	<6.5	–
CC(C)(CO)n1nnc2cc(-c3noc(-c4ccc5nc[nH]c5c4)n3)ccc21 [Compound 642, 2-(5-(5-(1H-benzo[d]imidazol-6-yl)-1,2,4-oxadiazol-3-yl)-1H-benzo[d][1,2,3]triazol-1-yl)-2-methylpropan-1-ol]	–	<5	–	<6.5	–
CC(C)(CO)n1nnc2cc(-c3noc(-c4cccnc4F)n3)ccc21 [Compound 643, 2-(5-(5-(2-fluoropyridin-3-yl)-1,2,4-oxadiazol-3-yl)-1H-benzo[d][1,2,3]triazol-1-yl)-2-methylpropan-1-ol]	< 75%	<5	> 75%	<6.5	–
CC(C)(CO)n1nnc2cc(-c3noc(-c4cnccc4C(F)(F)F)n3)ccc21 [Compound 644, 2-methyl-2-(5-(5-(4-(trifluoromethyl)pyridin-3-yl)-1,2,4-oxadiazol-3-yl)-1H-benzo[d][1,2,3]triazol-1-yl)propan-1-ol]	> 75%	<5	> 75%	<6.5	–
O=C1CNc2ccc(-c3nc(-c4cn[nH]c4)no3)cc2N1 [Compound 645, 7-[3-(1H-pyrazol-4-yl)-1,2,4-oxadiazol-5-yl]-1,2,3,4-tetrahydroquinoxalin-2-one]	–	<5	–	<6.5	–
CC(C)n1nnc2cc(-c3nc(-c4cn[nH]c4)no3)ccc21 [Compound 646, 1-(propan-2-yl)-5-[3-(1H-pyrazol-4-yl)-1,2,4-oxadiazol-5-yl]-1H-1,2,3-benzotriazole]	> 75%	–	< 75%	–	EC50 ([1]; β-arrestin2 recruitment, S1P1 CHO-K1 cells, read-out: hS1P1 B-arrestin2 pEC50 (converted)): > 10 µM; EC50 ([2]; inhibition of cAMP production, S1P1 CHO-K1 cells, read-out: hS1P1 cAMP pEC50 (converted)): > 0.316 µM
COc1ccc(-c2noc(-c3ccc4c(c3)nnn4CC(C)(C)O)n2)c(C)c1 [Compound 647, 1-{5-[3-(4-methoxy-2-methylphenyl)-1,2,4-oxadiazol-5-yl]-1H-1,2,3-benzotriazol-1-yl}-2-methylpropan-2-ol]	> 75%	>5	> 75%	>6.5	–
N#Cc1cc(-c2nc(-c3ccc4[nH]c(=O)oc4c3)no2)ccc1NCC1CC1 [Compound 726, 2-(cyclopropylmethylamino)-5-[3-(2-oxo-3H-1,3-benzoxazol-6-yl)-1,2,4-oxadiazol-5-yl]benzonitrile]	–	–	–	–	inhibition in vivo at 3 mg/kg [3]: > 50%
N#Cc1cc(-c2nc(-c3ccc4c(c3)CNC4=O)no2)ccc1NCC1CC1 [Compound 727, 2-((cyclopropylmethyl)amino)-5-(3-(1-oxoisoindolin-5-yl)-1,2,4-oxadiazol-5-yl)benzonitrile]	–	–	–	–	inhibition in vivo at 3 mg/kg [3]: > 50%
CC(C)Nc1ccc(-c2nc(-c3ccc4[nH]c(=O)[nH]c4c3)no2)cc1C#N [Compound 728, 2-(isopropylamino)-5-(3-(2-oxo-2,3-dihydro-1H-benzo[d]imidazol-5-yl)-1,2,4-oxadiazol-5-yl)benzonitrile]	–	–	–	–	inhibition in vivo at 3 mg/kg [3]: > 50%
N#Cc1cc(-c2nc(-c3ccc4[nH]c(=O)[nH]c4c3)no2)ccc1NCC1CC1 [Compound 729, 2-((cyclopropylmethyl)amino)-5-(3-(2-oxo-2,3-dihydro-1H-benzo[d]imidazol-5-yl)-1,2,4-oxadiazol-5-yl)benzonitrile]	–	–	–	–	inhibition in vivo at 3 mg/kg [3]: > 50%
N#Cc1cc(-c2nnc(-c3ccc4cnccc4c3)o2)ccc1NCC(F)F [Compound 733, 2-[(2,2-difluoroethyl)amino]-5-[5-(isoquinolin-6-yl)-1,3,4-oxadiazol-2-yl]benzonitrile]	–	–	–	–	inhibition in vivo at 3 mg/kg [3]: > 50%

From US11912693B2, “Compounds for modulating S1P1 activity and methods of using the same” (TREVENA, INC., priority 2017, dated 2024)
